Experimental data from patent publication US20210009542A1 (Calico Life Sciences LLC, priority 2018, published 2021).
Where two headings read alike, the source gives them in different places.

How the values were obtained:
[1] = test system: B16F10 mouse melanoma cells; experiment: B16F10 IFNγ-induced cellular growth inhibition assay; assay type: cell-based; conditions: Mus musculus, B16-F10, 33 μM compound
Description: B16F10 mouse melanoma cells (ATCC Cat ^#CRL-6475, Manassas, Va.) were seeded at a density of 500 cells per well in a 384-well clear bottom plate (Corning Cat^# 3765, Corning, N.Y.) in 25 μL total volume of DMEM+10% FBS (Sigma Cat ^#D6429 and Sigma Cat ^#F4135, St. Louis, Mo.). Cells were allowed to adhere overnight at 37° C.+5% CO2. On the following day, 12.5 μL of mouse IFNγ (RD systems Cat485-MI/CF, Minneapolis, Minn.) was added to half of the plate (columns 13-24) at a concentration of 2 ng/mL for a final assay concentration of 0.5 ng/mL of IFNγ. Media only (12.5 μL of DMEM+10% FBS) was added to the remainder of the plate (columns 1-12). Next, compounds resuspended in DMSO (Sigma Cat ^#D2650) at 100 mM were diluted in semi-log dilutions in DMSO ranging from 100 mM to 0.001 mM and DMSO only controls were included. The compound/DMSO dilutions were further diluted 1:250 in DMEM+10% FBS, and 12.5 μL of these dilutions were added in triplicates to cells of both treatment arms (with and without IFNγ). Final compound concentrations ranged from 100 μM to 0.001 μM with a final DMSO concentration of 0.1%. Compounds were only dosed in the inner 240 wells, avoiding the outer 2-well perimeter of the plate to minimize edge effects. Finally, the plate was loaded into an IncuCyte® S3 Live Cell Analysis System (Essen Bioscience-Sartorius, Ann Arbor, Mich.) maintained in a 37° C.+5% CO2 incubator, allowed to equilibrate for 2 hours, and imaged every 6 hours for 5 days. Confluence over time for compound dilutions in the presence and absence of IFNγ was measured. Growth inhibition values were obtained when the “DMSO/no IFNγ” control reached confluence >95%. At these time points, the percent growth inhibition of each compound at the indicated concentration was calculated relative to the “DMSO/with IFNγ” control.

[2] = biological target: T1, His tagged PTPN2 (TC45) protein (Homo sapiens, UniProt P17706); experiment: Mobility shift assay (MSA) for potency of PTPN2 inhibitors; assay type: biochemical; conditions: read-out: PTPN2 MSA IC50
T1 construct: made in house
T1 sequence (P17706 with tags, fused parts or gaps isoform P17706-2): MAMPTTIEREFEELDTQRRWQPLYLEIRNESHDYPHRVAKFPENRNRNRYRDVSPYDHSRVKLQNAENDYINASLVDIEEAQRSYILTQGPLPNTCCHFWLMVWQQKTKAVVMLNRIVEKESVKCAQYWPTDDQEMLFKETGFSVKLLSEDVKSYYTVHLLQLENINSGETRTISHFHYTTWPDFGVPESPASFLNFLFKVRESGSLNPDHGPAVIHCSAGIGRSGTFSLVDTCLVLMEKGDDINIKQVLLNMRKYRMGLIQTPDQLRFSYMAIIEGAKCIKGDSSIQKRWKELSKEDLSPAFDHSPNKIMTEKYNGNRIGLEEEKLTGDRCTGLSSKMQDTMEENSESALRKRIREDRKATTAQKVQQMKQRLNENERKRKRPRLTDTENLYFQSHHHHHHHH
Description: Compound activity was determined using in house His tagged PTPN2 (TC45) protein (SEQ ID NO: 1) in an in vitro enzymatic reaction. The enzymatic assay used to determine activity was a mobility shift assay using a LabChip EZ Reader by Caliper Life Sciences. The enzymatic reaction was carried out in assay buffer (50 mM HEPES pH 7.5, 1 mM EGTA, 10 mM EDTA, 0.01% Tween® 20, and 2 mM DTT). The compounds were dispensed on a white 384 well ProxiPlate™ (PerkinElmer Catalog #6008289) plate using the Labcyte Echo at varying concentrations (12 point, 1:3 dilution). The enzyme (at 0.5 nM) was incubated with compound for 10 minutes at room temperature. Then the substrate (phosphorylated insulin receptor probe sequence: ((OG488)-(NH—CH2—CH2—O—CH2—CH2—O—CH2—CO)-T-R-D-I-(PY)-E-T-D-Y-Y-R-K-K-NH2) (SEQ ID NO: 2) was added at […] to the plates and incubated for another 10 minutes at room temperature. Finally, a quench solution (water and 4-bromo-3-(2-oxo-2-propoxyethoxy)-5-(3-{[1-(phenylmethanesulfonyl)piperidin-4-yl]amino}phenyl)thiophene-2-carboxylic acid) was added to the plates, which were then run on the EZ Reader (excitation 488 nm, emission 530 nm) to measure % conversion (the amount of phosphorylated substrate which was de-phosphorylated by PTPN2). […] The % inhibition was then used to calculate the IC50 values.

[3] = +0.5 ng/mL IFNγ, relative to DMSO control, read-out: % B16F10 growth inhibition (+0.5 ng/mL IFNγ) @ 33 μM
[4] = no IFNγ, read-out: % B16F10 growth inhibition (no IFNγ) @ 33 μM

Row | SMILES | inhibition at 33 µM [1, 3] | inhibition at 33 µM [1, 4] | IC50 [2]
1 | COCCOc1ccc2cc(O)c(N3CC(=O)NS3(=O)=O)c(F)c2c1 [Compound 119, 5-[1-fluoro-3-hydroxy-7-(2-methoxyethoxy)naphthalen-2-yl]-1λ^6,2,5-thiadiazolidine-1,1,3-trione] | 60 to 90% | < 25% | 1 to 10 nM
2 | N#CCOc1ccc2cc(O)c(N3CC(=O)NS3(=O)=O)c(F)c2c1 [Compound 203, {[8-fluoro-6-hydroxy-7-(1,1,4-trioxo-1λ^6,2,5-thiadiazolidin-2-yl)naphthalen-2-yl]oxy}acetonitrile] | 60 to 90% | < 25% | 1 to 10 nM
3 | CC(C)(C#N)CCOc1ccc2cc(O)c(N3CC(=O)NS3(=O)=O)c(F)c2c1 [Compound 120, 4-{[8-fluoro-6-hydroxy-7-(1,1,4-trioxo-1λ^6,2,5-thiadiazolidin-2-yl)naphthalen-2-yl]oxy}-2,2-dimethylbutanenitrile] | 60 to 90% | < 25% | < 1 nM
4 | O=C1CN(c2c(O)cc3ccc(-c4cnn(CC5CC5)c4)cc3c2F)S(=O)(=O)N1 [Compound 132, 5-{7-[1-(cyclopropylmethyl)-1H-pyrazol-4-yl]-1-fluoro-3-hydroxynaphthalen-2-yl}-1λ^6,2,5-thiadiazolidine-1,1,3-trione] | 60 to 90% | < 25% | < 1 nM
5 | C[C@H](O)CCOc1ccc2cc(O)c(N3CC(=O)NS3(=O)=O)c(F)c2c1 [Compound 147, 5-{1-fluoro-3-hydroxy-7-[(3S)-3-hydroxybutoxy]naphthalen-2-yl}-1λ^6,2,5-thiadiazolidine-1,1,3-trione] | > 90% | < 25% | < 1 nM
6 | N#C/C=C/c1ccc2cc(O)c(N3CC(=O)NS3(=O)=O)c(F)c2c1 [Compound 208, (2E)-3-[8-fluoro-6-hydroxy-7-(1,1,4-trioxo-1λ^6,2,5-thiadiazolidin-2-yl)naphthalen-2-yl]prop-2-enenitrile] | < 25% | < 25% | 1 to 10 nM
7 | O=C1CN(c2c(O)cc3ccc(OCCN4CCCCC4)cc3c2F)S(=O)(=O)N1 [Compound 112, 5-{1-fluoro-3-hydroxy-7-[2-(piperidin-1-yl)ethoxy]naphthalen-2-yl}-1λ^6,2,5-thiadiazolidine-1,1,3-trione] | 25 to 59% | < 25% | 10 to 100 nM
8 | CNc1ccc2cc(O)c(N3CC(=O)NS3(=O)=O)c(F)c2c1 [Compound 107, 5-[1-fluoro-3-hydroxy-7-(methylamino)naphthalen-2-yl]-1λ^6,2,5-thiadiazolidine-1,1,3-trione] | 60 to 90% | < 25% | 10 to 100 nM
9 | O=C1CN(c2c(O)cc3ccc(OCCCC(F)(F)F)cc3c2F)S(=O)(=O)N1 [Compound 158, 5-[1-fluoro-3-hydroxy-7-(4,4,4-trifluorobutoxy)naphthalen-2-yl]-1λ^6,2,5-thiadiazolidine-1,1,3-trione] | 60 to 90% | < 25% | 1 to 10 nM
10 | O=C1CN(c2c(O)cc3ccc(NCCc4ccccc4)cc3c2F)S(=O)(=O)N1 [Compound 164, 5-{1-fluoro-3-hydroxy-7-[(2-phenylethyl)amino]naphthalen-2-yl}-1λ^6,2,5-thiadiazolidine-1,1,3-trione] | > 90% | < 25% | < 1 nM
11 | N#CCCCOc1ccc2cc(O)c(N3CC(=O)NS3(=O)=O)c(F)c2c1 [Compound 129, 4-{[8-fluoro-6-hydroxy-7-(1,1,4-trioxo-1λ^6,2,5-thiadiazolidin-2-yl)naphthalen-2-yl]oxy}butanenitrile] | > 90% | < 25% | < 1 nM
12 | [2H]c1c(O)c(N2C([2H])([2H])C(=O)NS2(=O)=O)c(F)c2cc(OC)ccc12 [Compound 106, 5-[1-fluoro-3-hydroxy-7-methoxy(4-^2H)naphthalen-2-yl](4,4-^2H2)-1λ^6,2,5-thiadiazolidine-1,1,3-trione] | 60 to 90% | < 25% | 1 to 10 nM
13 | O=C1CN(c2c(O)cc3ccc(C(F)F)cc3c2F)S(=O)(=O)N1 [Compound 167, 5-[7-(difluoromethyl)-1-fluoro-3-hydroxynaphthalen-2-yl]-1λ^6,2,5-thiadiazolidine-1,1,3-trione] | 60 to 90% | < 25% | 10 to 100 nM
14 | O=C1CN(c2c(O)cc3ccc(NCCC(F)(F)F)cc3c2F)S(=O)(=O)N1 [Compound 169, 5-{1-fluoro-3-hydroxy-7-[(3,3,3-trifluoropropyl)amino]naphthalen-2-yl}-1λ^6,2,5-thiadiazolidine-1,1,3-trione] | > 90% | < 25% | 1 to 10 nM
15 | CC(C)(C)CCNc1ccc2cc(O)c(N3CC(=O)NS3(=O)=O)c(F)c2c1 [Compound 116, 5-{7-[(3,3-dimethylbutyl)amino]-1-fluoro-3-hydroxynaphthalen-2-yl}-1λ^6,2,5-thiadiazolidine-1,1,3-trione] | > 90% | < 25% | 1 to 10 nM
16 | CC(C)CCCc1ccc2cc(O)c(N3CC(=O)NS3(=O)=O)c(F)c2c1 [Compound 219, 5-[1-fluoro-3-hydroxy-7-(4-methylpentyl)naphthalen-2-yl]-1λ^6,2,5-thiadiazolidine-1,1,3-trione] | – | – | 1 to 10 nM
17 | C[C@@H](O)CCCc1ccc2cc(O)c(N3CC(=O)NS3(=O)=O)c(F)c2c1 [Compound 151, 5-{1-fluoro-3-hydroxy-7-[(4R)-4-hydroxypentyl]naphthalen-2-yl}-1λ^6,2,5-thiadiazolidine-1,1,3-trione] | – | – | 1 to 10 nM
18 | N#Cc1c[nH]c(-c2ccc3cc(O)c(N4CC(=O)NS4(=O)=O)c(F)c3c2)n1 [Compound 321, 2-[8-fluoro-6-hydroxy-7-(1,1,4-trioxo-1λ^6,2,5-thiadiazolidin-2-yl)naphthalen-2-yl]-1H-imidazole-4-carbonitrile] | – | – | 1 to 10 nM
19 | O=C1CN(c2c(O)cc3ccc(-c4cccnc4)cc3c2F)S(=O)(=O)N1 [Compound 266, 5-[1-fluoro-3-hydroxy-7-(pyridin-3-yl)naphthalen-2-yl]-1λ^6,2,5-thiadiazolidine-1,1,3-trione] | – | – | 1 to 10 nM
20 | O=C(CNc1ccc2cc(O)c(N3CC(=O)NS3(=O)=O)c(F)c2c1)NCCC1CC1 [Compound 268, N-(2-cyclopropylethyl)-2-{[8-fluoro-6-hydroxy-7-(1,1,4-trioxo-1λ^6,2,5-thiadiazolidin-2-yl)naphthalen-2-yl]amino}acetamide] | – | – | 1 to 10 nM
21 | Cc1n[nH]c(C)c1COc1ccc2cc(O)c(N3CC(=O)NS3(=O)=O)c(F)c2c1 [Compound 318, 5-{7-[(3,5-dimethyl-1H-pyrazol-4-yl)methoxy]-1-fluoro-3-hydroxynaphthalen-2-yl}-1λ^6,2,5-thiadiazolidine-1,1,3-trione] | – | – | 1 to 10 nM
